Data: US11477982B2, “2-amino-5-oxyalkyl-pyrimidine derivatives and their use for controlling undesired plant growth” (Bayer CropScience Aktiengesellschaft, priority 2017, dated 2022)

Columns and labels:
Format in all cases: in vivo
[1] = test system: CYPES; test: Pre-emergence herbicidal effect
Method in brief: (§1)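 Pre-emergence soil-surface spray. Formulation WP/EC, aqueous, +0.5% additive, 600 l/ha. Greenhouse ~3 wk; visual % score vs untreated (0% = control, 100% = dead).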

[2] = test system: ABUTH: Abutilon theophrasti; test: Pre-emergence herbicidal effect
Method in brief: as §1

[3] = test system: ALOMY: Alopecurus myosuroides; test: Pre-emergence herbicidal effect; conditions: pre-emergence
Method in brief: as §1

[4] = test system: AMARE: Amaranthus retroflexus; test: Pre-emergence herbicidal effect; conditions: pre-emergence
Method in brief: as §1

[5] = test system: AVEFA: Avena fatua; test: Pre-emergence herbicidal effect
Method in brief: as §1

[6] = test system: ECHCG: Echinochloa crus-galli; test: Pre-emergence herbicidal effect; conditions: pre-emergence
Method in brief: as §1

[7] = test system: HORMU: Hordeum murinum; test: Pre-emergence herbicidal effect; conditions: pre-emergence
Method in brief: as §1

[8] = test system: LOLRI: Lolium rigidum; test: Pre-emergence herbicidal effect
Method in brief: as §1

[9] = test system: MATIN: Matricaria inodora; test: Pre-emergence herbicidal effect; conditions: pre-emergence; dosage 320 g/ha
Method in brief: as §1

[10] = test system: PHBPU: Ipomoea purpurea; test: Pre-emergence herbicidal effect
Method in brief: as §1

[11] = test system: POLCO: Polygonum convolvulus; test: Pre-emergence herbicidal effect
Method in brief: as §1

[12] = test system: SETVI: Setaria viridis; test: Pre-emergence herbicidal effect; conditions: pre-emergence
Method in brief: as §1

[13] = test system: STEME: Stellaria media; test: Pre-emergence herbicidal effect; conditions: pre-emergence; dosage 320 g/ha
Method in brief: as §1

[14] = test system: VERPE: Veronica persica; test: Pre-emergence herbicidal effect; conditions: dosage 320 g/ha
Method in brief: as §1

[15] = test system: VIOTR: Viola tricolor; test: Pre-emergence herbicidal effect; conditions: dosage 320 g/ha
Method in brief: as §1

[16] = test system: ABUTH: Abutilon theophrasti; test: Post-emergence herbicidal effect
Method in brief: (§2)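 Visual % activity against untreated controls, where 100% means plants died and 0% means no difference, rated about 3 weeks after treatment. Plants were sprayed at the one-leaf stage with WP or EC formulations diluted in water plus 0.5% additive, at 600 l/ha.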

[17] = test system: ALOMY: Alopecurus myosuroides; test: Post-emergence herbicidal effect
Method in brief: as §2

[18] = test system: AMARE: Amaranthus retroflexus; test: Post-emergence herbicidal effect
Method in brief: as §2

[19] = test system: AVEFA: Avena fatua; test: Post-emergence herbicidal effect
Method in brief: as §2

[20] = test system: ECHCG: Echinochloa crus-galli; test: Post-emergence herbicidal effect
Method in brief: as §2

[21] = test system: LOLRI: Lolium rigidum; test: Post-emergence herbicidal effect
Method in brief: as §2

[22] = test system: MATIN: Matricaria inodora; test: Post-emergence herbicidal effect
Method in brief: as §2

[23] = test system: PHBPU: Ipomoea purpurea; test: Post-emergence herbicidal effect; conditions: dosage 320 g/ha
Method in brief: as §2

[24] = test system: POLCO: Polygonum convolvulus; test: Post-emergence herbicidal effect
Method in brief: as §2

[25] = test system: SETVI: Setaria viridis; test: Post-emergence herbicidal effect
Method in brief: as §2

[26] = test system: STEME: Stellaria media; test: Post-emergence herbicidal effect
Method in brief: as §2

[27] = test system: VERPE: Veronica persica; test: Post-emergence herbicidal effect; conditions: dosage 320 g/ha
Method in brief: as §2

[28] = test system: VIOTR: Viola tricolor; test: Post-emergence herbicidal effect
Method in brief: as §2

## Cc1ccc2c(c1)[C@H](Nc1ncc(C(C)(C)O)c(N)n1)[C@@H](C)C2 [drawing 3, reference compound]
[1]; dosage 80 g/ha
  Herbicidal action against CYPES: 60%
[1]; dosage 320 g/ha
  Herbicidal action against CYPES: 70%

## Cc1ccc2c(c1)[C@H](Nc1ncc(C(C)(C)O)c(C)n1)[C@@H](C)C2 [Example 1.6]
[2]; dosage 80 g/ha
  Herbicidal action against ABUTH: 90%
[2]; dosage 320 g/ha
  Herbicidal action against ABUTH: 100%
[3]; dosage 80 g/ha
  Herbicidal action against ALOMY: 100%
[3]; dosage 320 g/ha
  Herbicidal action against ALOMY: 100%
[4]; dosage 80 g/ha
  Herbicidal action against AMARE: 100%
[4]; dosage 320 g/ha
  Herbicidal action against AMARE: 100%
[5]; dosage 80 g/ha
  Herbicidal action against AVEFA: 80%
[5]; dosage 320 g/ha
  Herbicidal action against AVEFA: 100%
[6]; dosage 80 g/ha
  Herbicidal action against ECHCG: 100%
[6]; dosage 320 g/ha
  Herbicidal action against ECHCG: 100%
[7]; dosage 80 g/ha
  Herbicidal action against HORMU: 100%
[7]; dosage 320 g/ha
  Herbicidal action against HORMU: 100%
[8]; dosage 80 g/ha
  Herbicidal action against LOLRI: 100%
[8]; dosage 320 g/ha
  Herbicidal action against LOLRI: 100%
[9]
  Herbicidal action against MATIN: 100%
[10]; dosage 80 g/ha
  Herbicidal action against PHBPU: 80%
[10]; dosage 320 g/ha
  Herbicidal action against PHBPU: 100%
[11]; dosage 80 g/ha
  Herbicidal action against POLCO: 100%
[11]; dosage 320 g/ha
  Herbicidal action against POLCO: 100%
[12]; dosage 80 g/ha
  Herbicidal action against SETVI: 100%
[12]; dosage 320 g/ha
  Herbicidal action against SETVI: 100%
[13]
  Herbicidal action against STEME: 100%
[14]
  Herbicidal action against VERPE: 100%
[15]
  Herbicidal action against VIOTR: 100%
[16]; dosage 80 g/ha
  Herbicidal action against ABUTH: 80%
[16]; dosage 320 g/ha
  Herbicidal action against ABUTH: 90%
[17]; dosage 80 g/ha
  Herbicidal action against ALOMY: 90%
[17]; dosage 320 g/ha
  Herbicidal action against ALOMY: 100%
[18]; dosage 80 g/ha
  Herbicidal action against AMARE: 100%
[18]; dosage 320 g/ha
  Herbicidal action against AMARE: 100%
[19]; dosage 320 g/ha
  Herbicidal action against AVEFA: 100%
[20]; dosage 80 g/ha
  Herbicidal action against ECHCG: 100%
[20]; dosage 320 g/ha
  Herbicidal action against ECHCG: 100%
[21]; dosage 80 g/ha
  Herbicidal action against LOLRI: 40%
[21]; dosage 320 g/ha
  Herbicidal action against LOLRI: 100%
[22]; dosage 80 g/ha
  Herbicidal action against MATIN: 20%
[23]
  Herbicidal action against PHBPU: 100%
[24]; dosage 320 g/ha
  Herbicidal action against POLCO: 80%
[25]; dosage 80 g/ha
  Herbicidal action against SETVI: 90%
[25]; dosage 320 g/ha
  Herbicidal action against SETVI: 100%
[26]; dosage 80 g/ha
  Herbicidal action against STEME: 100%
[26]; dosage 320 g/ha
  Herbicidal action against STEME: 100%
[27]
  Herbicidal action against VERPE: 80%
[28]; dosage 80 g/ha
  Herbicidal action against VIOTR: 90%
[28]; dosage 320 g/ha
  Herbicidal action against VIOTR: 90%

## CC(C)(O)c1cnc(N[C@@H]2CCCc3ccccc32)nc1 [Example 1.8, 2-{2-[(1R)-1,2,3,4-Tetrahydronaphthalen-1-ylamino]pyrimidin-5-yl}propan-2-ol]
[2]; dosage 320 g/ha
  Herbicidal action against ABUTH: 100%
[3]; dosage 320 g/ha
  Herbicidal action against ALOMY: 100%
[4]; dosage 320 g/ha
  Herbicidal action against AMARE: 100%
[5]; dosage 320 g/ha
  Herbicidal action against AVEFA: 100%
[1]; dosage 320 g/ha
  Herbicidal action against CYPES: 70%
[6]; dosage 320 g/ha
  Herbicidal action against ECHCG: 100%
[7]; dosage 320 g/ha
  Herbicidal action against HORMU: 100%
[8]; dosage 320 g/ha
  Herbicidal action against LOLRI: 100%
[9]
  Herbicidal action against MATIN: 100%
[10]; dosage 320 g/ha
  Herbicidal action against PHBPU: 100%
[11]; dosage 320 g/ha
  Herbicidal action against POLCO: 100%
[12]; dosage 320 g/ha
  Herbicidal action against SETVI: 100%
[13]
  Herbicidal action against STEME: 100%
[14]
  Herbicidal action against VERPE: 100%
[15]
  Herbicidal action against VIOTR: 100%
[16]; dosage 320 g/ha
  Herbicidal action against ABUTH: 90%
[17]; dosage 320 g/ha
  Herbicidal action against ALOMY: 70%
[18]; dosage 320 g/ha
  Herbicidal action against AMARE: 100%
[19]; dosage 320 g/ha
  Herbicidal action against AVEFA: 100%
[20]; dosage 320 g/ha
  Herbicidal action against ECHCG: 100%
[22]; dosage 320 g/ha
  Herbicidal action against MATIN: 100%
[23]
  Herbicidal action against PHBPU: 80%
[24]; dosage 320 g/ha
  Herbicidal action against POLCO: 90%
[25]; dosage 320 g/ha
  Herbicidal action against SETVI: 100%
[26]; dosage 320 g/ha
  Herbicidal action against STEME: 100%
[27]
  Herbicidal action against VERPE: 90%
[28]; dosage 320 g/ha
  Herbicidal action against VIOTR: 90%

## Cc1ccc2c(c1)[C@H](Nc1ncc(C(C)(C)O)cn1)[C@@H](C)C2 [Example 1.4]
[2]; dosage 80 g/ha
  Herbicidal action against ABUTH: 100%
[2]; dosage 320 g/ha
  Herbicidal action against ABUTH: 100%
[3]; dosage 80 g/ha
  Herbicidal action against ALOMY: 90%
[3]; dosage 320 g/ha
  Herbicidal action against ALOMY: 100%
[4]; dosage 80 g/ha
  Herbicidal action against AMARE: 100%
[4]; dosage 320 g/ha
  Herbicidal action against AMARE: 100%
[5]; dosage 80 g/ha
  Herbicidal action against AVEFA: 80%
[5]; dosage 320 g/ha
  Herbicidal action against AVEFA: 100%
[1]; dosage 80 g/ha
  Herbicidal action against CYPES: 80%
[1]; dosage 320 g/ha
  Herbicidal action against CYPES: 100%
[6]; dosage 80 g/ha
  Herbicidal action against ECHCG: 100%
[6]; dosage 320 g/ha
  Herbicidal action against ECHCG: 100%
[7]; dosage 80 g/ha
  Herbicidal action against HORMU: 90%
[7]; dosage 320 g/ha
  Herbicidal action against HORMU: 100%
[8]; dosage 80 g/ha
  Herbicidal action against LOLRI: 100%
[8]; dosage 320 g/ha
  Herbicidal action against LOLRI: 100%
[9]
  Herbicidal action against MATIN: 100%
[10]; dosage 80 g/ha
  Herbicidal action against PHBPU: 80%
[10]; dosage 320 g/ha
  Herbicidal action against PHBPU: 100%
[11]; dosage 80 g/ha
  Herbicidal action against POLCO: 100%
[11]; dosage 320 g/ha
  Herbicidal action against POLCO: 100%
[12]; dosage 80 g/ha
  Herbicidal action against SETVI: 100%
[12]; dosage 320 g/ha
  Herbicidal action against SETVI: 100%
[13]
  Herbicidal action against STEME: 100%
[14]
  Herbicidal action against VERPE: 100%
[15]
  Herbicidal action against VIOTR: 100%
[16]; dosage 80 g/ha
  Herbicidal action against ABUTH: 60%
[16]; dosage 320 g/ha
  Herbicidal action against ABUTH: 90%
[17]; dosage 80 g/ha
  Herbicidal action against ALOMY: 20%
[17]; dosage 320 g/ha
  Herbicidal action against ALOMY: 70%
[18]; dosage 320 g/ha
  Herbicidal action against AMARE: 100%
[19]; dosage 80 g/ha
  Herbicidal action against AVEFA: 20%
[19]; dosage 320 g/ha
  Herbicidal action against AVEFA: 50%
[20]; dosage 80 g/ha
  Herbicidal action against ECHCG: 30%
[20]; dosage 320 g/ha
  Herbicidal action against ECHCG: 90%
[21]; dosage 80 g/ha
  Herbicidal action against LOLRI: 60%
[21]; dosage 320 g/ha
  Herbicidal action against LOLRI: 90%
[22]; dosage 80 g/ha
  Herbicidal action against MATIN: 40%
[22]; dosage 320 g/ha
  Herbicidal action against MATIN: 80%
[23]
  Herbicidal action against PHBPU: 100%
[24]; dosage 80 g/ha
  Herbicidal action against POLCO: 70%
[24]; dosage 320 g/ha
  Herbicidal action against POLCO: 90%
[25]; dosage 320 g/ha
  Herbicidal action against SETVI: 80%
[26]; dosage 80 g/ha
  Herbicidal action against STEME: 60%
[26]; dosage 320 g/ha
  Herbicidal action against STEME: 90%
[28]; dosage 80 g/ha
  Herbicidal action against VIOTR: 90%
